What was measured:
ECHGC = experiment: Pre-emergence action at 320 g/ha against ECHGC; format: in vivo, Echinochloa crus-galli; settings: visual scoring after about 3 weeks vs untreated controls
Text: (§1) b) Seeds of monocotyledonous and dicotyledonous weed plants and crop plants are placed in plastic or organic planting pots and covered with soil. The compounds of the invention, formulated in the form of wettable powders (WP) or as emulsion concentrates (EC), are then applied onto the surface of the covering soil as aqueous suspension or emulsion with addition of 0.5% additive at a water application rate of 600 l/ha (converted). After the treatment, the pots are placed in a greenhouse and kept under good growth conditions for the trial plants. After about 3 weeks, the effect of the preparations is scored visually in comparison with untreated controls as percentages. For example, 100% activity=the plants have died, 0% activity=like control plants. Tables 13 to 26 below show the effects of selected compounds of the general formula (I) on various harmful plants and at an application rate corresponding to 320 g/ha, which were obtained by the experimental procedure mentioned above.

MATIN [1] = experiment: Pre-emergence action at 320 g/ha against MATIN; format: in vivo, Tripleurospermum inodorum (Matricaria inodora); settings: visual scoring after about 3 weeks vs untreated controls
Text: as §1

LOLRI [2] = experiment: Pre-emergence action at 320 g/ha against LOLRI; format: in vivo, Lolium rigidum; settings: visual scoring after about 3 weeks vs untreated controls
Text: as §1

SETVI [3] = experiment: Pre-emergence action at 320 g/ha against SETVI; format: in vivo, Setaria viridis; settings: visual scoring after about 3 weeks vs untreated controls
Text: as §1

ALOMY [4] = experiment: Pre-emergence action at 320 g/ha against ALOMY; format: in vivo, Alopecurus myosuroides; settings: scored visually after about 3 weeks vs untreated controls (100% = plants have died)
How it was run: (§2)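 Weed and crop seeds sown in pots and covered with soil; WP or EC formulations sprayed pre-emergence onto the soil surface at 320 g/ha with 0.5% additive in 600 l/ha water. Kept in greenhouse; after about 3 weeks activity scored visually as % versus untreated controls (100% = plants dead, 0% = as control).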

AMARE [5] = experiment: Pre-emergence action at 320 g/ha against AMARE; format: in vivo, Amaranthus retroflexus; settings: visual scoring after about 3 weeks vs untreated controls
How it was run: as §2

AVEFA = experiment: Pre-emergence action at 320 g/ha against AVEFA; format: in vivo; settings: visual scoring after about 3 weeks vs untreated controls
Text: as §1

VIOTR = experiment: Pre-emergence action at 320 g/ha against VIOTR; format: in vivo, Viola tricolor; settings: dosage 320 g/ha
How it was run: as §2

POLCO = experiment: Pre-emergence action at 320 g/ha against POLCO; format: in vivo, Fallopia convolvulus (Polygonum convolvulus); settings: visual scoring after about 3 weeks vs untreated controls
How it was run: as §2

VERPE [6] = experiment: Pre-emergence action at 320 g/ha against VERPE; format: in vivo, Veronica persica; settings: visual scoring after about 3 weeks vs untreated controls
Text: as §1

LOLRI [7] = experiment: Post-emergence action against LOLRI, 1.28 kg/ha; format: in vivo, Lolium rigidum; settings: dosage 1280 g/ha, visual rating about 3 weeks after treatment vs untreated controls
Description: • a) Seeds of mono- and dicotyledonous weed plants are placed in plastic pots in sandy loam soil (twin sowing with one species each of mono- or dicotyledonous weed plants per pot), covered with soil and cultivated in a greenhouse under controlled growth conditions. 2 to 3 weeks after sowing, the test plants are treated at the one-leaf stage. The compounds of the invention, formulated in the form of wettable powders (WP) or as emulsion concentrates (EC), are applied to the green parts of the plants as aqueous suspension or emulsion with addition of 0.5% additive at a water application rate equivalent to 600 litres per hectare. After the test plants have been kept in the greenhouse under optimum growth conditions for about 3 weeks, the activity of the preparations is rated visually in comparison to untreated controls. For example, 100% activity=the plants have died, 0% activity=like control plants. As shown by the results, compounds of the general formula (I) of the invention, in post-emergence treatment, have very good herbicidal efficacy (90% to 100% herbicidal action) against harmful plants such as Abutilon theophrasti, Digitaria sanguinalis, Echinochloa crus-galli, Matricaria inodora, Poa annua, at an application rate of 1.28 kg of active substance per hectare.

AMARE [8] = experiment: Pre-emergence action against AMARE, 1280 g/ha; format: in vivo, Amaranthus retroflexus; settings: scored visually after about 3 weeks vs untreated controls (100% = plants have died)
How it was run: (§3)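 Greenhouse pre-emergence test on sown seeds in sandy loam; soil-surface spray of formulated compound with 0.5% additive at 600 L/ha water. Scored visually, % vs untreated, after about 3 weeks.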

POAAN [9] = experiment: Pre-emergence action against POAAN, 1280 g/ha; format: in vivo, Poa annua; settings: visual scoring after about 3 weeks vs untreated controls, 100% = plants have died, 0% = like control plants
How it was run: as §3

VERPE [10] = experiment: Post-emergence action against VERPE, 1.28 kg/ha; format: in vivo, Veronica persica; settings: dosage 1280 g/ha, visual rating about 3 weeks after treatment vs untreated controls (100% = plants died)
How it was run: (§4)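 Visual rating against untreated plants about 3 weeks after spraying gives % activity, where 0% means like controls and 100% means plants died. Plants were treated post-emergence at the one-leaf stage with compound formulated as wettable powder or emulsion concentrate, applied at 600 L water/ha plus 0.5% additive.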

LOLRI [11] = experiment: Pre-emergence action against LOLRI, 1280 g/ha; format: in vivo, Lolium rigidum; settings: visual scoring after about 3 weeks vs untreated controls, 100% = plants have died, 0% = like control plants
How it was run: as §3

DIGSA [12] = experiment: Post-emergence action against DIGSA, 1.28 kg/ha; format: in vivo, Digitaria sanguinalis; settings: dosage 1280 g/ha, visual rating about 3 weeks after treatment vs untreated controls
How it was run: as §4

DIGSA [13] = experiment: Pre-emergence action against DIGSA, 1280 g/ha; format: in vivo, Digitaria sanguinalis; settings: visual scoring after about 3 weeks vs untreated controls, 100% = plants have died, 0% = like control plants
How it was run: as §3

STEME [14] = experiment: Post-emergence action against STEME, 1.28 kg/ha; format: in vivo, Stellaria media; settings: dosage 1280 g/ha, visual rating about 3 weeks after treatment vs untreated controls (100% = plants died)
How it was run: as §4

SETVI [15] = experiment: Post-emergence action against SETVI, 1.28 kg/ha; format: in vivo, Setaria viridis; settings: dosage 1280 g/ha, visual rating about 3 weeks after treatment vs untreated controls
How it was run: as §4

MATIN [16] = experiment: Pre-emergence action against MATIN, 1280 g/ha; format: in vivo, Tripleurospermum inodorum (Matricaria inodora); settings: scored visually after about 3 weeks vs untreated controls (100% = plants have died)
How it was run: as §3

ECHCG [17] = experiment: Post-emergence action against ECHCG, 1.28 kg/ha; format: in vivo, Echinochloa crus-galli; settings: dosage 1280 g/ha, visual rating about 3 weeks after treatment vs untreated controls
How it was run: as §4

POAAN [18] = experiment: Post-emergence action against POAAN, 1.28 kg/ha; format: in vivo, Poa annua; settings: dosage 1280 g/ha, visual rating about 3 weeks after treatment vs untreated controls
How it was run: as §4

ALOMY [19] = experiment: Post-emergence action against ALOMY, 1.28 kg/ha; format: in vivo, Alopecurus myosuroides; settings: dosage 1280 g/ha, visual rating about 3 weeks after treatment vs untreated controls
How it was run: as §4

ALOMY [20] = experiment: Pre-emergence action against ALOMY, 1280 g/ha; format: in vivo, Alopecurus myosuroides; settings: visual scoring after about 3 weeks vs untreated controls, 100% = plants have died, 0% = like control plants
How it was run: as §3

MATIN [21] = experiment: Post-emergence action against MATIN, 1.28 kg/ha; format: in vivo, Tripleurospermum inodorum (Matricaria inodora); settings: dosage 1280 g/ha, visual rating about 3 weeks after treatment vs untreated controls (100% = plants died)
How it was run: as §4

STEME [22] = experiment: Pre-emergence action against STEME, 1280 g/ha; format: in vivo, Stellaria media; settings: scored visually after about 3 weeks vs untreated controls (100% = plants have died)
How it was run: as §3

AMARE [23] = experiment: Post-emergence action against AMARE, 1.28 kg/ha; format: in vivo, Amaranthus retroflexus; settings: dosage 1280 g/ha, visual rating about 3 weeks after treatment vs untreated controls (100% = plants died)
How it was run: as §4

SETVI [24] = experiment: Pre-emergence action against SETVI, 1280 g/ha; format: in vivo, Setaria viridis; settings: visual scoring after about 3 weeks vs untreated controls, 100% = plants have died, 0% = like control plants
How it was run: as §3

ABUTH = experiment: Post-emergence action against ABUTH, 1.28 kg/ha; format: in vivo, Abutilon theophrasti; settings: dosage 1280 g/ha, visual rating about 3 weeks after treatment vs untreated controls (100% = plants died)
How it was run: as §4

VERPE [25] = experiment: Pre-emergence action against VERPE, 1280 g/ha; format: in vivo, Veronica persica; settings: scored visually after about 3 weeks vs untreated controls (100% = plants have died)
How it was run: as §3

ECHCG [26] = experiment: Pre-emergence action against ECHCG, 1280 g/ha; format: in vivo, Echinochloa crus-galli; settings: visual scoring after about 3 weeks vs untreated controls, 100% = plants have died, 0% = like control plants
How it was run: as §3

COC(=O)C1CCCN1C(=O)COc1nn(-c2ccccc2F)c(-c2ccc(F)nc2)c1Br (stereo not drawn) [Example X-016]
Pre-emergence action against ECHGC in % (ECHGC): 90% | Pre-emergence action against MATIN in % (MATIN [1]): 90% | Pre-emergence action against LOLRI in % (LOLRI [2]): 90% | Pre-emergence action against SETVI in % (SETVI [3]): 100% | Pre-emergence action at 320 g/ha against ALOMY in % (ALOMY [4]): 100% | Pre-emergence action against AMARE in % (AMARE [5]): 100% | Pre-emergence action against AVEFA in % (AVEFA): 90% | Pre-emergence action against VIOTR in % (VIOTR): 100% | Pre-emergence action against POLCO in % (POLCO): 80% | Pre-emergence action against VERPE in % (VERPE [6]): 100%

O=C(COc1nn(-c2ccccc2F)c(-c2ccc(F)nc2)c1Br)NO [Example X-023]
Post-emergence action against LOLRI (LOLRI [7]): 100% | Pre-emergence action against AMARE (AMARE [8]): 100% | Pre-emergence action against POAAN (POAAN [9]): 100% | Post-emergence action against VERPE (VERPE [10]): 100% | Pre-emergence action against LOLRI (LOLRI [11]): 100% | Post-emergence action against DIGSA (DIGSA [12]): 100% | Pre-emergence action against DIGSA (DIGSA [13]): 100% | Post-emergence action against STEME (STEME [14]): 100% | Post-emergence action against SETVI (SETVI [15]): 90% | Pre-emergence action against MATIN (MATIN [16]): 100% | Post-emergence action against ECHCG (ECHCG [17]): 100% | Post-emergence action against POAAN (POAAN [18]): 100% | Post-emergence action against ALOMY (ALOMY [19]): 100% | Pre-emergence action against ALOMY (ALOMY [20]): 90% | Post-emergence action against MATIN (MATIN [21]): 100% | Pre-emergence action against STEME (STEME [22]): 100% | Post-emergence action against AMARE (AMARE [23]): 100% | Pre-emergence action against SETVI (SETVI [24]): 100% | Post-emergence action against ABUTH (ABUTH): 90% | Pre-emergence action against VERPE (VERPE [25]): 100% | Pre-emergence action against ECHCG (ECHCG [26]): 100%

COC(=O)[C@@H](C)Oc1nn(-c2ccccc2)c(-c2cccnc2)c1Cl [VII-041]
Pre-emergence action against ECHGC in % (ECHGC): 80% | Pre-emergence action against MATIN in % (MATIN [1]): 100% | Pre-emergence action against LOLRI in % (LOLRI [2]): 90% | Pre-emergence action at 320 g/ha against ALOMY in % (ALOMY [4]): 90% | Pre-emergence action against AMARE in % (AMARE [5]): 100% | Pre-emergence action against AVEFA in % (AVEFA): 80% | Pre-emergence action against VIOTR in % (VIOTR): 80% | Pre-emergence action against VERPE in % (VERPE [6]): 100%
